The structures appear in SMILES notation. Values after ≈ are worked out from the molar mass of the structure shown. Where two headings read alike, the source gives them in different places.

Series [1] is described as follows: Pharmacokinetic profile in cannulated rats (oral dosing). The class given is in vivo. Particulars: rat, oral dose 3 mg/kg, plasma. The procedure: The pharmacokinetic profile of the compounds of the invention is determined in rats cannulated in the right carotid artery for blood collection. For iv dosing, the compound is prepared in a suitable formulation, for example 10% v/v DMSO, 50% v/v PEG 400 in water, and dosing is carried out by cannulation of the left jugular vein. Samples are collected at 5 min, 0.5, 1, 2, 4, 6 and 8 hours post-dosing. For oral dosing, the compound is prepared in a suitable formulation such as 0.4% w/v methylcellulose in water Samples are collected at 0.5, 1, 2, 4, 6 and 8 hours post-dosing. In some cases, samples are also collected at 12 hours post-dosing. Plasma is obtained by centrifugation of the each blood sample and drug concentration is then determined using standard methods, such as liquid chromatography-mass spectrometry following protein precipitation.
Results are tabulated below, and are also shown in the accompanying drawing. The drawing is a graph of PK data following oral dosing in the rat; PC (plasma concentration; ng/ml) is plotted against t (time; hours). ▪ represents the compound of Example 8, and · the free base. The superiority of the novel compound is evident.

A short description of series [2]: Solubility in water at pH 7. Format: physicochemical. As for the experimental part: The solubility of the compound of Example 8, in water at pH 7, was 0.2 mg/ml. The solubility of the corresponding free base, under the same conditions, was 0.002 mg/ml.

For the compound `COc1ccc(C(=O)Nc2c(Cl)c[n+]([O-])cc2Cl)c2ccc(C(F)(F)F)nc12` [Example 8, 8-Methoxy-2-trifluoromethylquinoline-5-carboxylic Acid (3,5-dichloro-1-oxypyridin-4-yl)amide], in series [1], the “AUC0-last (po)” value was determined as 30169 ng·h/mL, the “Cmax (po)” value turned out to be 3054 ng/mL and the “t1/2 (po)” value amounted to 20 h. The solubility in series [2] came to 200 µg/mL (≈ 463 µM).

For `COc1ccc(C(=O)Nc2c(Cl)cncc2Cl)c2ccc(C(F)(F)F)nc12` [Free base, 8-Methoxy-2-trifluoromethylquinoline-5-carboxylic acid (3,5-dichloropyridin-4-yl)amide], the “Cmax (po)” value in series [1] came out at 1008 ng/mL. In addition, in series [1] (read-out: AUC0-last (po)), the AUC(0-t) is 6860 ng·h/mL. The half-life in series [1] (read-out: t1/2 (po) (converted)) is 270 min. Besides, the solubility in series [2] (aqueous buffer, read-out: solubility) was found to be 2 µg/mL (≈ 4.81 µM).

Values taken from patent US6642254B2, “Heterocyclic compounds and their therapeutic use” (Darwin Discovery, Ltd., priority 1998, dated 2003).
